Source: patent publication US12275733B2, “Substituted pyrido[3,4-b]indoles for the treatment of cartilage disorders” (Sanofi, priority 2016, dated 2025)

Tested on: ATDC5 cells
Test: Chondrogenesis activity assay in ATDC5 cells (collagen type II induction, immunofluorescence)
Format: cell-based, mouse
Details: for EC50: collagen type II induction in ATDC5 cells, concentration reaching 50% of maximum induction; for Emax: maximum percent induction of collagen type II relative to internal reference compound at 10 μM, ATDC5 cells
Method in brief: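 Mouse ATDC5 cells in insulin (10 μg/ml)-containing DMEM/F12 differentiation medium with 5% FCS were exposed to compound, typically 40 nM–10 μM at 0.1% DMSO, for 4 days at 37 °C. Intracellular collagen type II was quantified by Alexa Fluor 488 immunostaining with high-content imaging, relative to DMSO and a 10 μM reference compound.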

| EC50 (Mus musculus) [nM] | EC50 [nM] | Structure (SMILES) | Emax (Mus musculus) [%] |
| --- | --- | --- | --- |
| 990 | – | FC(F)(F)Cn1c2cnccc2c2cc(Cl)cc(-c3cnn(Cc4ccccn4)c3)c21 [Example 168, 6-Chloro-8-(1-pyridin-2-ylmethyl-1H-pyrazol-4-yl)-9-(2,2,2-trifluoro-ethyl)-9H-pyrido[3,4-b]indole] | > 80 |
| 1300 | 1100 | COCCn1cc(-c2cc(Cl)cc3c4ccncc4n(CC(F)(F)F)c23)cn1 [Example 169, 6-Chloro-8-[1-(2-methoxy-ethyl)-1H-pyrazol-4-yl]-9-(2,2,2-trifluoro-ethyl)-9H-pyrido[3,4-b]indole] | – |
| > 10000 | – | FC(F)(F)Cn1c2cnccc2c2cc(Cl)cc(-c3cnc(-c4ccccc4)s3)c21 [Example 170, 6-Chloro-8-(2-phenyl-thiazol-5-yl)-9-(2,2,2-trifluoro-ethyl)-9H-pyrido[3,4-b]indole] | 20 to 50 |
| > 10000 | – | COc1ccc(-c2cc(Cl)cc3c2[nH]c2c(C)nccc23)cc1OC [Example 172, 6-Chloro-8-(3,4-dimethoxy-phenyl)-1-methyl-9H-pyrido[3,4-b]indole] | 20 to 50 |
| 1900 | – | FC(F)(F)Cn1c2cnccc2c2cc(Cl)cc(-c3cnn(CC4CC4)c3)c21 [Example 173, 6-Chloro-8-(1-cyclopropylmethyl-1H-pyrazol-4-yl)-9-(2,2,2-trifluoro-ethyl)-9H-pyrido[3,4-b]indole] | > 80 |
| 7300 | – | FC(F)(F)Cn1c2cnccc2c2cc(Cl)cc(-c3cnc(C4CC4)s3)c21 [Example 174, 6-Chloro-8-(2-cyclopropyl-thiazol-5-yl)-9-(2,2,2-trifluoro-ethyl)-9H-pyrido[3,4-b]indole] | 50 to 80 |
| > 10000 | – | COc1cc(OC)c(-c2cc(Cl)cc3c2[nH]c2c(C)nccc23)c(OC)c1 [Example 175, 6-Chloro-1-methyl-8-(2,4,6-trimethoxy-phenyl)-9H-pyrido[3,4-b]indole] | < 20 |
| > 10000 | – | Cc1cc(OC(C)C)ccc1-c1cc(Cl)cc2c1[nH]c1c(C)nccc12 [Example 176, 6-Chloro-8-(4-isopropoxy-2-methyl-phenyl)-1-methyl-9H-pyrido[3,4-b]indole] | 20 to 50 |
| > 10000 | – | Cc1nccc2c1[nH]c1c(-c3ccc(OCc4ccccc4)cc3)cc(Cl)cc12 [Example 177, 8-(4-Benzyloxy-phenyl)-6-chloro-1-methyl-9H-pyrido[3,4-b]indole] | 20 to 50 |
| > 10000 | – | COc1ccc(-c2cc(Cl)cc3c2[nH]c2c(C)nccc23)c(OC)c1OC [Example 178, 6-Chloro-1-methyl-8-(2,3,4-trimethoxy-phenyl)-9H-pyrido[3,4-b]indole] | 20 to 50 |
| > 10000 | – | Cc1nccc2c1[nH]c1c(-c3ccc4c(c3)CCO4)cc(Cl)cc12 [Example 179, 6-Chloro-8-(2,3-dihydro-benzofuran-5-yl)-1-methyl-9H-pyrido[3,4-b]indole] | > 80 |
| 330 | – | COc1ccc(-c2cc(Cl)cc3c2[nH]c2c(C)nccc23)cc1O [Example 180, 5-(6-Chloro-1-methyl-9H-pyrido[3,4-b]indol-8-yl)-2-methoxy-phenol] | > 80 |
| 2100 | – | Cc1nccc2c1[nH]c1c(-c3ccc(OCC4CC4)cc3)cc(Cl)cc12 [Example 181, 6-Chloro-8-(4-cyclopropylmethoxy-phenyl)-1-methyl-9H-pyrido[3,4-b]indole] | > 80 |
| 220 | – | Cc1nccc2c1[nH]c1c(-c3ccc(OCC4(C)COC4)cc3)cc(Cl)cc12 [Example 182, 6-Chloro-1-methyl-8-[4-(3-methyl-oxetan-3-ylmethoxy)-phenyl]-9H-pyrido[3,4-b]indole] | > 80 |
| 2300 | – | Cc1nccc2c1[nH]c1c(-c3ccc(OC4CC4)cc3)cc(Cl)cc12 [Example 183, 6-Chloro-8-(4-cyclopropoxy-phenyl)-1-methyl-9H-pyrido[3,4-b]indole] | 50 to 80 |
| > 10000 | – | COc1ccc(-c2cc(Cl)cc3c2[nH]c2c(C)nccc23)cc1OCc1ccccc1 [Example 185, 8-(3-Benzyloxy-4-methoxy-phenyl)-6-chloro-1-methyl-9H-pyrido[3,4-b]indole] | 20 to 50 |
| 100 | – | COc1ccc(-c2cc(Cl)cc3c2[nH]c2c(C)nccc23)cc1N [Example 186, 5-(6-Chloro-1-methyl-9H-pyrido[3,4-b]indol-8-yl)-2-methoxy-phenylamine] | > 80 |
| 2200 | – | COc1ccc(-c2cc(Cl)cc3c2[nH]c2c(C)nccc23)c(C)c1C [Example 187, 6-Chloro-8-(4-methoxy-2,3-dimethyl-phenyl)-1-methyl-9H-pyrido[3,4-b]indole] | > 80 |
| 640 | – | COc1ccc(-c2cc(Br)cc3c2[nH]c2c(C)nccc23)cc1 [Example 188, 6-Bromo-8-(4-methoxy-phenyl)-1-methyl-9H-pyrido[3,4-b]indole] | > 80 |

| EC50 (Mus musculus) [nM] | EC50 [nM] | Structure (SMILES) | Emax (Mus musculus) [%] |
| --- | --- | --- | --- |
| 500 | – | Cc1nccc2c1[nH]c1c(-c3ccc(Cl)cc3)cc(Cl)cc12 [Example 189, 6-Chloro-8-(4-chloro-phenyl)-1-methyl-9H-pyrido[3,4-b]indole] | > 80 |
| 720 | – | Cc1nccc2c1[nH]c1c(-c3ccc(Cl)cc3Cl)cc(Cl)cc12 [Example 190, 6-Chloro-8-(2,4-dichloro-phenyl)-1-methyl-9H-pyrido[3,4-b]indole] | > 80 |
| 550 | – | COc1ccc(-c2cc(Cl)cc3c2[nH]c2cnccc23)cc1 [Example 191, 6-Chloro-8-(4-methoxy-phenyl)-9H-pyrido[3,4-b]indole] | > 80 |
| 640 | – | CCOc1ccc(-c2cc(Cl)cc3c2[nH]c2c(C)nccc23)cc1 [Example 192, 6-Chloro-8-(4-ethoxy-phenyl)-1-methyl-9H-pyrido[3,4-b]indole] | > 80 |
| > 10000 | – | COc1ccc(-c2cc(Cl)cc3c2[nH]c2c(C)nccc23)c(OC)c1 [Example 193, 6-Chloro-8-(2,4-dimethoxy-phenyl)-1-methyl-9H-pyrido[3,4-b]indole] | 20 to 50 |
| 800 | – | Cc1nccc2c1[nH]c1c(-c3ccc4c(c3)OC(C)C4)cc(Cl)cc12 (stereo not shown) [Example 196, 6-Chloro-1-methyl-8-(2-methyl-2,3-dihydro-benzofuran-6-yl)-9H-pyrido[3,4-b]indole] | 50 to 80 |
| 630 | – | Cc1nccc2c1[nH]c1c(-c3ccc(OC4CCOC4)cc3)cc(Cl)cc12 (stereo not shown) [Example 197, 6-Chloro-1-methyl-8-[4-(tetrahydro-furan-3-yloxy)-phenyl]-9H-pyrido[3,4-b]indole] | > 80 |
| 1800 | – | Cc1cc(-c2cc(Cl)cc3c2[nH]c2c(C)nccc23)ccc1OC1CCOC1 (stereo not shown) [Example 198, 6-Chloro-1-methyl-8-[3-methyl-4-(tetrahydrofuran-3-yloxy)-phenyl]-9H-pyrido[3,4-b]indole] | 20 to 50 |
| 600 | – | COCCn1c2cnccc2c2cc(Cl)cc(-c3ccc(OC)cc3)c21 [Example 201, 6-Chloro-9-(2-methoxy-ethyl)-8-(4-methoxy-phenyl)-9H-pyrido[3,4-b]indole] | > 80 |
| 640 | – | Cc1nccc2c1[nH]c1c(-c3ccc(OCc4ccccn4)cc3)cc(Cl)cc12 [Example 202, 6-Chloro-1-methyl-8-[4-(pyridin-2-ylmethoxy)-phenyl]-9H-pyrido[3,4-b]indole] | > 80 |
| > 10000 | – | CCOC(=O)c1ccc2[nH]c(-c3cc(Cl)cc4c3[nH]c3c(C)nccc34)cc2c1 [Example 203, 2-(6-Chloro-1-methyl-9H-pyrido[3,4-b]indol-8-yl)-1H-indole-5-carboxylic acid ethyl ester] | < 20 |
| 190 | – | Cc1nccc2c1[nH]c1c(-c3ccc(CC(=O)N4CCC(N5CCCC5)CC4)cc3)cc(Cl)cc12 [Example 204, 2-[4-(6-Chloro-1-methyl-9H-pyrido[3,4-b]indol-8-yl)-phenyl]-1-(4-pyrrolidin-1-yl-piperidin-1-yl)-ethanone] | 50 to 80 |
| 3300 | – | Cc1nccc2c1[nH]c1c(-c3ccc(Oc4ccccc4)cc3)cc(Cl)cc12 [Example 205, 6-Chloro-1-methyl-8-(4-phenoxy-phenyl)-9H-pyrido[3,4-b]indole] | > 80 |
| 1600 | – | CCn1c2c(-c3cnn(Cc4ccccc4)c3)cc(Cl)cc2c2ccnc(C)c21 [Example 207, 8-(1-Benzyl-1H-pyrazol-4-yl)-6-chloro-9-ethyl-1-methyl-9H-pyrido[3,4-b]indole] | > 80 |
| 1900 | – | CCn1c2c(-c3cnn(Cc4ccccc4)c3)cc(Br)cc2c2ccnc(C)c21 [Example 208, 8-(1-Benzyl-1H-pyrazol-4-yl)-6-bromo-9-ethyl-1-methyl-9H-pyrido[3,4-b]indole] | > 80 |
| > 3300 | – | CCc1nc(C)cc2c3cc(Br)cc(-c4cnn(C)c4)c3n(CC)c12 [Example 210, 6-Bromo-1,9-diethyl-3-methyl-8-(1-methyl-1H-pyrazol-4-yl)-9H-pyrido[3,4-b]indole] | < 20 |
| > 3300 | – | CCc1cc2c([nH]c3c(-c4ccc(OC)cc4)cc(Br)cc32)c(C)n1 [Example 211, 6-Bromo-3-ethyl-8-(4-methoxy-phenyl)-1-methyl-9H-pyrido[3,4-b]indole] | < 20 |
| 230 | – | Cc1nccc2c1[nH]c1c(-c3ccnc(N)c3)cc(Cl)cc12 [Example 215, 4-(6-Chloro-1-methyl-9H-pyrido[3,4-b]indol-8-yl)-pyridin-2-ylamine] | > 80 |
| > 3300 | – | CCn1c2c(-c3ccnc(N4CCN(C)CC4)c3)cc(Cl)cc2c2ccnc(C)c21 [Example 219, 6-Chloro-9-ethyl-1-methyl-8-[2-(4-methyl-piperazin-1-yl)-pyridin-4-yl]-9H-pyrido[3,4-b]indole] | < 20 |
